Where “and” joins values, the source holds several entries; their conditions need not be identical. Equal entries are not always repeated.
Key:
[1] = target: 318 nonolfactory human GPCRs (Homo sapiens, UniProt P32239); type: cell-based; settings: CCKBR; C21 5 µM
[2] = target: T1, 318 nonolfactory human GPCRs (Homo sapiens, UniProt Q9HBX9); type: cell-based; settings: RXFP1; C21 5 µM
T1 construct: expressed in transfected cells; host or cells: HTLA cells, transient

[3] = target: T2, 318 nonolfactory human GPCRs (Homo sapiens, UniProt P32247); type: cell-based; settings: BB3; C21 5 µM
T2 construct: expressed in transfected cells; host or cells: HTLA cells, transient

[4] = target: T3, 318 nonolfactory human GPCRs (Homo sapiens, UniProt P47871); type: cell-based; settings: GCGR; C21 5 µM
T3 construct: expressed in transfected cells; host or cells: HTLA cells, transient

[5] = target: T4, 318 nonolfactory human GPCRs (Homo sapiens, UniProt Q92847); type: cell-based; settings: GHSR; C21 5 µM
T4 construct: expressed in transfected cells; host or cells: HTLA cells, transient

[6] = target: T5, 318 nonolfactory human GPCRs (Homo sapiens, UniProt P33032); type: cell-based; settings: MC5R; C21 5 µM
T5 construct: expressed in transfected cells; host or cells: HTLA cells, transient

[7] = target: T6, 318 nonolfactory human GPCRs (Homo sapiens, UniProt Q9Y2T6); type: cell-based; settings: GPR55; C21 5 µM
T6 construct: expressed in transfected cells; host or cells: HTLA cells, transient

[8] = target: T7, 318 nonolfactory human GPCRs (Homo sapiens, UniProt O14843); type: cell-based; settings: FFA3; C21 5 µM
T7 construct: expressed in transfected cells; host or cells: HTLA cells, transient

[9] = target: T8, 318 nonolfactory human GPCRs (Homo sapiens, UniProt Q96G91); type: cell-based; settings: P2RY11; C21 5 µM
T8 construct: expressed in transfected cells; host or cells: HTLA cells, transient

[10] = target: T9, 318 nonolfactory human GPCRs (Homo sapiens, UniProt Q99527); type: cell-based; settings: GPER; C21 5 µM
T9 construct: expressed in transfected cells; host or cells: HTLA cells, transient

[11] = target: T10, 318 nonolfactory human GPCRs (Homo sapiens, UniProt Q86SP6); type: cell-based; settings: GPR149; C21 5 µM
T10 construct: expressed in transfected cells; host or cells: HTLA cells, transient

[12] = target: T11, 318 nonolfactory human GPCRs (Homo sapiens, UniProt P47901); type: cell-based; settings: AVPR1B; C21 5 µM
T11 construct: expressed in transfected cells; host or cells: HTLA cells, transient

[13] = target: T12, 318 nonolfactory human GPCRs (Homo sapiens, UniProt Q96P66); type: cell-based; settings: GPR101; C21 5 µM
T12 construct: expressed in transfected cells; host or cells: HTLA cells, transient

[14] = target: T13, 318 nonolfactory human GPCRs (Homo sapiens, UniProt P25116); type: cell-based; settings: F2R; C21 5 µM
T13 construct: expressed in transfected cells; host or cells: HTLA cells, transient

[15] = target: T14, 318 nonolfactory human GPCRs (Homo sapiens, UniProt Q9Y5Y3); type: cell-based; settings: GPR45; C21 5 µM
T14 construct: expressed in transfected cells; host or cells: HTLA cells, transient

[16] = target: T15, 318 nonolfactory human GPCRs (Homo sapiens, UniProt P51684); type: cell-based; settings: CCR6; C21 5 µM
T15 construct: expressed in transfected cells; host or cells: HTLA cells, transient

[17] = target: T16, 318 nonolfactory human GPCRs (Homo sapiens, UniProt P34969); type: cell-based; settings: HTR7; C21 5 µM
T16 construct: expressed in transfected cells; host or cells: HTLA cells, transient

[18] = target: T17, 318 nonolfactory human GPCRs (Homo sapiens, UniProt P50391); type: cell-based; settings: NPY4R; C21 5 µM
T17 construct: expressed in transfected cells; host or cells: HTLA cells, transient

[19] = target: T18, 318 nonolfactory human GPCRs (Homo sapiens, UniProt Q9GZQ6); type: cell-based; settings: NPFF1; C21 5 µM
T18 construct: expressed in transfected cells; host or cells: HTLA cells, transient

[20] = target: T19, 318 nonolfactory human GPCRs (Homo sapiens, UniProt P30939); type: cell-based; settings: HTR1F; C21 5 µM
T19 construct: expressed in transfected cells; host or cells: HTLA cells, transient

[21] = target: 318 nonolfactory human GPCRs (Homo sapiens, UniProt Q13258); type: cell-based; settings: PTGDR; C21 5 µM
[22] = target: T20, 318 nonolfactory human GPCRs (Homo sapiens, UniProt O14842); type: cell-based; settings: FFA1; C21 5 µM
T20 construct: expressed in transfected cells; host or cells: HTLA cells, transient

[23] = target: T21, 318 nonolfactory human GPCRs (Homo sapiens, UniProt P51685); type: cell-based; settings: CCR8; C21 5 µM
T21 construct: expressed in transfected cells; host or cells: HTLA cells, transient

[24] = target: T22, 318 nonolfactory human GPCRs (Homo sapiens, UniProt P32245); type: cell-based; settings: MC4R; C21 5 µM
T22 construct: expressed in transfected cells; host or cells: HTLA cells, transient

[25] = target: 318 nonolfactory human GPCRs (Homo sapiens, UniProt P25021); type: cell-based; settings: HRH2; C21 5 µM
[26] = target: 318 nonolfactory human GPCRs (Homo sapiens, UniProt P28223); type: cell-based; settings: HTR2A; C21 5 µM
[27] = target: 318 nonolfactory human GPCRs (Homo sapiens, UniProt P47211); type: cell-based; settings: GAL1; C21 5 µM
[28] = target: T23, 318 nonolfactory human GPCRs (Homo sapiens, UniProt Q14416); type: cell-based; settings: GMR2; C21 5 µM
T23 construct: expressed in transfected cells; host or cells: HTLA cells, transient

[29] = plasma protein binding; type: in vitro ADME
[30] = target: T24, histamine H4 receptors (Homo sapiens, UniProt Q9H3N8); assay: cAMP signaling concentration-response, agonist mode; type: cell-based
T24 construct: expressed in transfected cells; host or cells: HEK293T, transient
Protocol: (§1) HEK293 T cells were used for transient transfections and Gi mediated cAMP production assays. Assays were performed according to published procedures (PMID25895059, PRESTO-Tango paper). More detailed assay protocols are available at NIMH PDSP Web site (http://pdspdb.unc.edu/pdspWeb/?site=assays).

[31] = target: dopamine D2 receptors (Homo sapiens, UniProt P14416); assay: as above; type: cell-based
Protocol: as §1

[32] = target: dopamine D3 receptors (Homo sapiens, UniProt P35462); assay: as above; type: cell-based
Protocol: as §1

[33] = tested on: hM3Dq in LH-vGAT neurons; assay: food intake, hM3Dq in LH-vGAT neurons; type: in vivo, mice; settings: 0.3, 1.0, 3.0 mg/kg

Chain of 318 nonolfactory human GPCRs (Homo sapiens, UniProt Q13258) (Q13258 whole entry): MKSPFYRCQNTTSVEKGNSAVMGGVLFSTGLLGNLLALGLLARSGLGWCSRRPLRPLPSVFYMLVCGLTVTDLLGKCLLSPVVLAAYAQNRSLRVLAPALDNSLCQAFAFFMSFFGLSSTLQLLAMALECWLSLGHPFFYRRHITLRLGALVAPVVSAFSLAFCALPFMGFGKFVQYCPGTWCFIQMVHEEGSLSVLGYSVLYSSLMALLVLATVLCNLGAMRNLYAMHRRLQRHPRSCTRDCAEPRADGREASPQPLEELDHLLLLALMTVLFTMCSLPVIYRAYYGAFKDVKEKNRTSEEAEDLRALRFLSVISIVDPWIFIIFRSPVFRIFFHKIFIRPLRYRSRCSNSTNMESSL
T16 sequence (P34969 whole entry): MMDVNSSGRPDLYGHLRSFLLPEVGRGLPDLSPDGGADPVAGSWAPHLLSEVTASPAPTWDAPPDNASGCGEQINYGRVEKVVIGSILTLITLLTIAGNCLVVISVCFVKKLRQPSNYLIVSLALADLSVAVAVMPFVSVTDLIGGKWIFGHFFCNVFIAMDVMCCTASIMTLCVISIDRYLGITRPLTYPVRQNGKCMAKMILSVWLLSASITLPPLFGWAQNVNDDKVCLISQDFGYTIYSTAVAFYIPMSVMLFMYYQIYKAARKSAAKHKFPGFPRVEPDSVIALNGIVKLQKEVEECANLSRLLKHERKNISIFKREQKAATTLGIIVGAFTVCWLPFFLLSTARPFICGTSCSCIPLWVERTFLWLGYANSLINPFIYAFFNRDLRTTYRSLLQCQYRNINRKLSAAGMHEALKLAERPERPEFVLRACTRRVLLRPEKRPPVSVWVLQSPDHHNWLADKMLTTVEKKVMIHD
T15 sequence (P51684 whole entry): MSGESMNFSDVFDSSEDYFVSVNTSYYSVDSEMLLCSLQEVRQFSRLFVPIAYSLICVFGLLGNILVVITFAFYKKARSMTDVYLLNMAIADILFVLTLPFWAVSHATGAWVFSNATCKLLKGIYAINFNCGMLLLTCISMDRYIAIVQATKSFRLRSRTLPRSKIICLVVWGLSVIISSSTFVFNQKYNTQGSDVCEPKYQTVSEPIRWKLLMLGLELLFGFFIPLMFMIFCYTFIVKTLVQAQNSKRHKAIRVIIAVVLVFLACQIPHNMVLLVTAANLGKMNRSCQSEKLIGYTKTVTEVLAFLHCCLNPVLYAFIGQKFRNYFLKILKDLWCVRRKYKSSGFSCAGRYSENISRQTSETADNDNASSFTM
T14 sequence (Q9Y5Y3 whole entry): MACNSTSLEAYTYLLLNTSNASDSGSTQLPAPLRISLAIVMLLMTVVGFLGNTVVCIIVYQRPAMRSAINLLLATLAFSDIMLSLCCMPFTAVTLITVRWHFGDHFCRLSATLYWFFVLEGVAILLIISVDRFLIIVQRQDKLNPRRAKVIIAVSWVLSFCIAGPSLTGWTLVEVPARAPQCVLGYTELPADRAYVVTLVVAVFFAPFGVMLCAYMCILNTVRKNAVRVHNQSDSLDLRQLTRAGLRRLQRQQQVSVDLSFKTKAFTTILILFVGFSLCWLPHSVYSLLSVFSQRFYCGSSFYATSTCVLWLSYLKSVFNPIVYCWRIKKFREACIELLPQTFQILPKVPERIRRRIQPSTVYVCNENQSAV
T19 sequence (P30939 whole entry): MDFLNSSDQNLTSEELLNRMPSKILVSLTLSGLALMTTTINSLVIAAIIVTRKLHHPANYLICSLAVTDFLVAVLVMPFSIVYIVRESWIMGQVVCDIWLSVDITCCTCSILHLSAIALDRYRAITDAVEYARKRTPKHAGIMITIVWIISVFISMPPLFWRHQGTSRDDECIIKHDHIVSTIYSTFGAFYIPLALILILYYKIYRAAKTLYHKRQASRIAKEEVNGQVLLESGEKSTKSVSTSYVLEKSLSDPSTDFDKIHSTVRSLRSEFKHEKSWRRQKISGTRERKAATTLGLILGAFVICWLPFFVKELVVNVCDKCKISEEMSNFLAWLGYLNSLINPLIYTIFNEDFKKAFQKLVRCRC
Chain of 318 nonolfactory human GPCRs (Homo sapiens, UniProt P32239) (P32239 whole entry): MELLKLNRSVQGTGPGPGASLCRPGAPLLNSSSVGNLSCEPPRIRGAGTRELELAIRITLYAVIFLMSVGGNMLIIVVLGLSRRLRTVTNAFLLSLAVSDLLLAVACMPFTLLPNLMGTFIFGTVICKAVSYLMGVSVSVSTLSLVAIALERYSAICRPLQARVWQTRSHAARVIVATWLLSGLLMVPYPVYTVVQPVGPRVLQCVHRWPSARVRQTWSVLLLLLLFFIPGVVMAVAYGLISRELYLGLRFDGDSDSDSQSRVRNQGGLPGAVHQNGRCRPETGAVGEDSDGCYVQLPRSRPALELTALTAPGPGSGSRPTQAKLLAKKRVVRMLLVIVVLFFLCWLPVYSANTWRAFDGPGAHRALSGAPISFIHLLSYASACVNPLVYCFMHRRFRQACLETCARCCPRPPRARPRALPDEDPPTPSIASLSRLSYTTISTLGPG
T17 sequence (P50391 whole entry): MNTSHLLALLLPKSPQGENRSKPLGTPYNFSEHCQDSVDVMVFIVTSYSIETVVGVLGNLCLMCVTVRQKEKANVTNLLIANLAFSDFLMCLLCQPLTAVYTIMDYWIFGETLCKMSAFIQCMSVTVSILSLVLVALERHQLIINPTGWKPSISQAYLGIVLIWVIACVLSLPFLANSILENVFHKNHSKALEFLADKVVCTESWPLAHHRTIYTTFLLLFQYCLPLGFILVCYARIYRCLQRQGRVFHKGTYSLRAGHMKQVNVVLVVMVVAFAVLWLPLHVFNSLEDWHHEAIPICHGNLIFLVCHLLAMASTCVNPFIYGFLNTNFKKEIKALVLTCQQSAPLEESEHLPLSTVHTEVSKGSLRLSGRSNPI
T20 sequence (O14842 whole entry): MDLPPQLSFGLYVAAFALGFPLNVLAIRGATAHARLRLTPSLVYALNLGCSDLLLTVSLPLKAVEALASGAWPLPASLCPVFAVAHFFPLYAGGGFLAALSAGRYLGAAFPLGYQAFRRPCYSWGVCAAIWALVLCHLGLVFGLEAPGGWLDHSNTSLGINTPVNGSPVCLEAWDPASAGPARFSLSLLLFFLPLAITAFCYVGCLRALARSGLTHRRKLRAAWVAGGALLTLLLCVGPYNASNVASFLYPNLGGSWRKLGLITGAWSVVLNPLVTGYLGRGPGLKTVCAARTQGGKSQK
T5 sequence (P33032 whole entry): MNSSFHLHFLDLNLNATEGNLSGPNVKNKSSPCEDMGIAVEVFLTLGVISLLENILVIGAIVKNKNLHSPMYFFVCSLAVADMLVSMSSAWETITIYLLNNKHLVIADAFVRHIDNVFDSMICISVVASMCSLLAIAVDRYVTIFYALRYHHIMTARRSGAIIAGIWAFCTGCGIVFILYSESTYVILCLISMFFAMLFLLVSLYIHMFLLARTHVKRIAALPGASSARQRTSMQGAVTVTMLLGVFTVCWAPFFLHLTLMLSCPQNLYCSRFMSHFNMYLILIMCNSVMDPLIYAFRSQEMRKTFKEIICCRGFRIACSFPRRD
T8 sequence (Q96G91 whole entry): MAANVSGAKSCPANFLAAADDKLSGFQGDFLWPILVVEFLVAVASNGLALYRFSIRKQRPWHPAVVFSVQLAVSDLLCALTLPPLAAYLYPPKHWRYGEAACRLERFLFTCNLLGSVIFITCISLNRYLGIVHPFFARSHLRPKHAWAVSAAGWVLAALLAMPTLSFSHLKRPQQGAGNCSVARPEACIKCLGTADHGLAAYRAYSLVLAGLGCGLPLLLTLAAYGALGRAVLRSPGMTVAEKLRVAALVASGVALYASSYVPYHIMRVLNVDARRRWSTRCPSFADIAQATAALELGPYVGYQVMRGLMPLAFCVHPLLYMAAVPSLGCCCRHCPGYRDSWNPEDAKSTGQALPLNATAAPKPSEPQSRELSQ
Chain of 318 nonolfactory human GPCRs (Homo sapiens, UniProt P47211) (P47211 whole entry): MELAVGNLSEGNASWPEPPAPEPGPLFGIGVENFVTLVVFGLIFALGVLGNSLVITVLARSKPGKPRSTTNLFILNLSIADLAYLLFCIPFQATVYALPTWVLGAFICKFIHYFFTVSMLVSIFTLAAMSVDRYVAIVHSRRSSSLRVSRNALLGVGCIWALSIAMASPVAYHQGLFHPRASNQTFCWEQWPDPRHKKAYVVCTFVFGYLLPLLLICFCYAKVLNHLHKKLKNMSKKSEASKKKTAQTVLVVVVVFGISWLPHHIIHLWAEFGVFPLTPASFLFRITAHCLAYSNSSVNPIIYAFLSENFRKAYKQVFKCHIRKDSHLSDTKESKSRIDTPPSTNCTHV
T21 sequence (P51685 whole entry): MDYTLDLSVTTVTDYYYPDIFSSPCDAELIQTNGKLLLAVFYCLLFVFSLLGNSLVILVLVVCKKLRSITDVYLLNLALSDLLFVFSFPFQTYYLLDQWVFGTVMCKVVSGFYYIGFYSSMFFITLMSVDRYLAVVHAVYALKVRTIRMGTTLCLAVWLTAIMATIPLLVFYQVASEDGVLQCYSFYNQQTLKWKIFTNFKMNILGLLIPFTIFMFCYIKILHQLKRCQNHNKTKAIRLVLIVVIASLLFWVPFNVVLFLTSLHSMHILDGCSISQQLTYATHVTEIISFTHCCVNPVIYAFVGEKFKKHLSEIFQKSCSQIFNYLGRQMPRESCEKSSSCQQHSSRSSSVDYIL
T13 sequence (P25116 22-425): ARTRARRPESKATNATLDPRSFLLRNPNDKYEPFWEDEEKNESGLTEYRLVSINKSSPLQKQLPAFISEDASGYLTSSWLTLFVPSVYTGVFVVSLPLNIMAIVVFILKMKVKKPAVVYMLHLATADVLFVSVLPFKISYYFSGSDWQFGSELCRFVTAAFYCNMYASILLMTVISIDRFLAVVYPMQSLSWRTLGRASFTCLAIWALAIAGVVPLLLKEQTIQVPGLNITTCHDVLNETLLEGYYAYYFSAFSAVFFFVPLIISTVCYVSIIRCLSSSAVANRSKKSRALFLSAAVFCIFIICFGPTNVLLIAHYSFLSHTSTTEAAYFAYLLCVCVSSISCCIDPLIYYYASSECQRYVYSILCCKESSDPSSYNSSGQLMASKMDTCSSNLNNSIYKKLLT

## c1ccc2c(c1)N=C(N1CCNCC1)c1ccccc1N2 [C21, 11-(1-piperazinyl)-5H-dibenzo[b,e][1,4]diazepine]
[1]
  FOLD OVER BASAL: 1.8 fold and 2.1 fold and 1.9 fold and 1.2 fold
[2]
  FOLD OVER BASAL: 0.4 fold and 0.6 fold
[3]
  FOLD OVER BASAL: 0.9 fold and 1.3 fold and 1 fold
[4]
  FOLD OVER BASAL: 0.3 fold and 0.2 fold and 0.4 fold
[5]
  FOLD OVER BASAL: 0.9 fold and 1 fold
[6]
  FOLD OVER BASAL: 1.2 fold and 0.9 fold and 1.3 fold and 1 fold
[7]
  FOLD OVER BASAL: 0.7 fold and 1 fold and 0.8 fold
[8]
  FOLD OVER BASAL: 0.6 fold and 0.7 fold
[9]
  FOLD OVER BASAL: 1.1 fold and 0.8 fold and 0.6 fold and 0.9 fold
[10]
  FOLD OVER BASAL: 0.4 fold and 0.2 fold and 0.3 fold
[11]
  FOLD OVER BASAL: 0.8 fold and 0.5 fold and 0.7 fold and 0.9 fold
[12]
  FOLD OVER BASAL: 0.4 fold and 0.6 fold and 0.7 fold
[13]
  FOLD OVER BASAL: 1.2 fold and 1 fold and 0.9 fold
[14]
  FOLD OVER BASAL: 0.8 fold and 0.9 fold and 0.6 fold
[15]
  FOLD OVER BASAL: 0.8 fold and 0.6 fold and 1 fold
[16]
  FOLD OVER BASAL: 1.1 fold and 1.2 fold and 1.7 fold
[17]
  FOLD OVER BASAL: 0.9 fold and 0.8 fold and 1 fold
[18]
  FOLD OVER BASAL: 0.5 fold and 0.6 fold and 0.7 fold
[19]
  FOLD OVER BASAL: 1.5 fold and 1.1 fold and 1.2 fold
[20]
  FOLD OVER BASAL: 1.1 fold and 1 fold and 0.8 fold
[21]
  FOLD OVER BASAL: 1.3 fold and 1.5 fold and 1 fold and 1.4 fold
[22]
  FOLD OVER BASAL: 0.4 fold and 0.7 fold and 0.8 fold
[23]
  FOLD OVER BASAL: 0.8 fold and 1.3 fold and 1.5 fold and 1.1 fold
[24]
  FOLD OVER BASAL: 1.2 fold and 0.6 fold
[25]
  FOLD OVER BASAL: 1.7 fold and 1.4 fold and 1.6 fold and 1.3 fold
[26]
  FOLD OVER BASAL: 0.1 fold and 0.2 fold
[27]
  FOLD OVER BASAL: 0.7 fold and 0.5 fold and 0.9 fold and 0.8 fold
[28]
  FOLD OVER BASAL: 1.3 fold and 1.2 fold and 0.7 fold and 1.1 fold
[29]
  fraction unbound: 0.049
[30]
  agonist activity, follow-up concentration-response (cAMP): minimal activity
[31]
  agonist activity, follow-up concentration-response (cAMP): minimal activity
[32]
  agonist activity, follow-up concentration-response (cAMP): minimal activity
[33]
  food intake: drives feeding in a dose-dependent fashion

Source: article PMC6407913, “DREADD Agonist 21 Is an Effective Agonist for Muscarinic-Based DREADDs in Vitro and in Vivo” (ACS Pharmacology & Translational Science, 2018)
